Laboratory results: patent US20220125760A1, “USE OF USP7 INHIBITORS FOR THE TREATMENT OF ACUTE MYELOID LEUKEMIA (AML)” (INSERM (Institut National de la Santé et de la Recherche …, priority 2019, published 2022)

Experiments:
HL-60 cells = test: Cell death of HL-60 cells, combination with cytarabine, annexinV flow cytometry; assay type: cell-based, Human; conditions: HL60 cells, 24 h
Description: (§1) B: HL-60 cells were treated as indicated for 24 h. […] Statistical analysis was performed by unpaired t-test (n=4). *P≤0.05 and **P≤0.01. […] Colony formation was assessed after 7 days and represented as the ratio of the number of clones between untreated and treated conditions. For statistical analyses, unpaired Wilcoxon test was used. *P≤0.05, and ns=not significant.
(§2) To explore the possibility that USP7 by modulating CHK1 stability USP7 participates in the chemoresistance of leukemic cells, we examined the capacity of USP7 inhibition to sensitize HL60 and OCI-AML3 cells to cytarabine treatment. […] We then quantified the capacity of primary AML cells to form colonies in methylcellulose-based semi-solid medium, when exposed to clinical relevant concentrations (10 nM) of cytarabine combined with the P22077 inhibitor (FIG. 5D-5E).

[1] = test system: Peripheral Blood Mononuclear Cells (PBMC); test: Cell viability of PBMC, annexinV/cell viability staining by flow cytometry; conditions: normal PBMC (n=3), 10 μM P22077 for 24 h
[2] = test system: OCI-AML3 cells engrafted in NSG mice; test: OCI-AML3 xenograft in NSG mice, overall survival; conditions: NSG mice engrafted with OCI-AML3, 30 mg/kg/day IP for 5 days, vs vehicle, p=0.0001
Description: For statistical analysis, Mantel-Cox test was used. ***P≤0.001.
NOD/LtSz-SCID/IL-2Ry chain null (NSG) mice were bred at the UMS006 in Toulouse (France) using breeders obtained from Charles River. […] NSG mice were treated by i.p. injection of busulfan (20 mg/kg) on the day before the experiment. Mice were engrafted by injection of 2.10^6 OCI-AML3 cells into the tail vein. […] Mice were treated by daily intraperitoneal (IP) injection with AraC, P22077 or vehicle for 5 days. Overall mouse survival was established under these conditions.
OCI-AML3 resistant cells were injected into the tail vein of immunodeficient NSG mice to establish AML disease.

OCI-AML3 cells = test: Cell death of OCI-AML3 cells, combination with cytarabine, annexinV flow cytometry; assay type: cell-based, Human; conditions: P22077 10 μM + AraC 1 μM, 24 h
Description: as §1, §2

[3] = test system: CHK1 protein levels in HEL cells; test: CHK1 and p53 protein levels in HEL cells; assay type: cell-based, Human; conditions: data not shown
Excerpt: (§3) We then investigated whether USP7 could regulate CHK1 levels in leukemic cells. […] We then used P22077, an inhibitor of USP7 catalytic activity^34,35, to further monitor the impact of USP7 inhibition on CHK1 levels. […] We then asked whether p53 status could affect this response and reproduced these experiments on two AML cell lines, OCI-AML3 and HEL, which express wild-type p53 and high CHK1 protein levels (FIG. 1A and data not shown). […] Using an immunofluorescence approach, we also validated that approximately 50% of CHK1 protein signal disappears after 24 hours of USP7 inhibition (data not shown).

[4] = test system: CHK1 protein level in OCI-AML3 cell line; test: CHK1 protein level by western blot in OCI-AML3 cells; assay type: cell-based, Human; conditions: OCI-AML3 cells (wild-type p53), P22077 10 μM
Description: (§4) FIG. 2: USP7 inhibition decreases CHK1 protein level. […] Actin was used as loading control. Normalization was performed using CTL siRNA condition as reference. […] B: HL-60 cells were treated with USP7 inhibitor (P22077) at 10 and harvested at the indicated times, followed by western blotting for CHK1. […] The amount of CHK1 at t=0 h was set to 1. […] C: OCI-AML3 cells were treated with USP7 inhibitor (P22077) at 10 μM and harvested at the indicated times, followed by western blotting for CHK1 protein. Graph represent the quantification of CHK1 protein levels normalized to actin loading control from 3 independent experiments. Statistical analyses were performed as in B.
We then investigated whether USP7 could regulate CHK1 levels in leukemic cells. […] . We then asked whether p53 status could affect this response and reproduced these experiments on two AML cell lines, OCI-AML3 and HEL, which express wild-type p53 and high CHK1 protein levels (FIG. 1A and data not shown). […] . Using an immunofluorescence approach, we also validated that approximately 50% of CHK1 protein signal disappears after 24 hours of USP7 inhibition (data not shown).

CHK1 protein signal = test: Immunofluorescence of CHK1 protein signal; assay type: cell-based; conditions: after 24 hours of USP7 inhibition, data not shown
Excerpt: as §3
We then investigated whether USP7 can regulate CHK1 protein level or its subcellular localization in leukemic cells. […] Using immunofluorescence, we also validated that approximately 50% of the CHK1 protein signal disappears after 24 hours of USP7 inhibition, without any changes in CHK1 subcellular localization (data not shown).

[5] = test system: CHK1 ubiquitination in HL60 cells; test: CHK1 immunoprecipitation and ubiquitin immunoblot in HL60 cells with MG132; assay type: cell-based, Human; conditions: in presence of proteasome inhibitor MG132, vs control condition
Description: To confirm that USP7 can regulates CHK1 protein level, endogenous CHK1 was immunoprecipitated from HL60 cells treated or not with P22077, in presence of the proteasome inhibitor MG132 to stabilize ubiquitinated forms of the protein. Immunoblotting of these fractions was performed and probed with an antibody against ubiquitin.

AML primary samples = test: Cell viability of AML primary samples, annexinV/cell viability staining by flow cytometry; conditions: three primary AML samples, 10 μM P22077 for 24 h
[6] = test system: CHK1 half-life in HL60 cells; test: CHK1 half-life with cycloheximide in HL60 cells; assay type: cell-based, Human
Description: To complete, experiments were performed to test whether the half-life of CHK1 is regulated by USP7 in leukemic cells. To this end, HL60 cells were treated with P22077 and the half-life of CHK1 was measured in the presence of 50 μg/mL cycloheximide (CHX) to inhibit protein biogenesis.

primary AML cells = test: Colony formation of primary AML blast cells in methylcellulose-based semi-solid medium; assay type: cell-based, Human; conditions: for colony formation, effect on cytarabine sensitivity: 10 nM cytarabine + 5 μM P22077, 7 days
Description: as §1, §2

[7] = test system: CHK1 protein levels in HL-60 cells; test: CHK1 protein level by western blot in HL-60 cells; assay type: cell-based, Human; conditions: HL-60 cells (p53 null), P22077 at 10, visible from 8 h to 24 h of treatment
Description: as §4, §3

CHK1 and USP7 = target: T1, CHK1 and USP7 (Homo sapiens, UniProt Q93009); test: Proximity Ligation Assay (PLA) of CHK1 and USP7 in HL-60 cells; assay type: cell-based; conditions: HL60 cells, drug treatment, untreated (NT) 1.07+/−0.07
T1 construct: endogenous in cells; host or cells: HL-60 cells
Description: as §1

T1 sequence (Q93009 whole entry): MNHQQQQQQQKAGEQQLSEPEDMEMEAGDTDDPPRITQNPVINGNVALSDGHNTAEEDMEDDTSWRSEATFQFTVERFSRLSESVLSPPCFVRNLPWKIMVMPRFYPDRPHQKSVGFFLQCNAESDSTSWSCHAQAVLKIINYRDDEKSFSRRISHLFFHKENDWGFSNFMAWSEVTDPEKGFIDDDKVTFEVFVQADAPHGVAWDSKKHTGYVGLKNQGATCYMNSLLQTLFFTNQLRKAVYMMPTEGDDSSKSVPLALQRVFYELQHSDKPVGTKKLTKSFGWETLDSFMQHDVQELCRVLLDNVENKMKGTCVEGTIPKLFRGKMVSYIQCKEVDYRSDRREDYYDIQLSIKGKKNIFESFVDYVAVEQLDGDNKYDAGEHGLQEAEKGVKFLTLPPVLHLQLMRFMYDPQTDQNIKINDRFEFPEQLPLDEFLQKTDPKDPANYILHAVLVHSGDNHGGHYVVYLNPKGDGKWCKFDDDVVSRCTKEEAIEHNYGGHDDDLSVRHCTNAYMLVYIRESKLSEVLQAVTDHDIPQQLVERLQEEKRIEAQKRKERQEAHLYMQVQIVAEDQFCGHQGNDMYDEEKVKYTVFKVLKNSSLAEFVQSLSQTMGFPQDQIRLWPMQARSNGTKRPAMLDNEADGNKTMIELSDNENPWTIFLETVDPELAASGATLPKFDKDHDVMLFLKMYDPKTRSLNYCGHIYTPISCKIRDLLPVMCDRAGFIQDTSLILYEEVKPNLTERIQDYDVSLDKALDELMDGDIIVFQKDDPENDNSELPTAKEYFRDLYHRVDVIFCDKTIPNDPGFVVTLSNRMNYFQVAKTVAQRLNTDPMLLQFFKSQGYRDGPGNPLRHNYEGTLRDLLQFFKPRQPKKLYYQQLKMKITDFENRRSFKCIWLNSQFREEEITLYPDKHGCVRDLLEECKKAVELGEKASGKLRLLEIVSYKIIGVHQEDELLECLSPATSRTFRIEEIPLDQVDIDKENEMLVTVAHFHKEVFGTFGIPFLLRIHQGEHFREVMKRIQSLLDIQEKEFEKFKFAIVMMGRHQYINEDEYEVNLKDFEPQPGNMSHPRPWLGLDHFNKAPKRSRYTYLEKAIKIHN

Structure (SMILES)	cell death in combination with cytarabine (HL-60 cells)	cell viability [1]	overall mouse survival [2]	cell death in combination with cytarabine (OCI-AML3 cells)	CHK1 protein levels ([3]; HEL cells (wild-type p53))	p53 protein levels ([3]; HEL cells)	CHK1 protein level [4]	CHK1 protein signal that disappears (immunofluorescence) (CHK1 protein signal)	CHK1 ubiquitination [5]	cell viability (AML primary samples)	half-life of CHK1 protein ([6]; 50 μg/mL cycloheximide, after 6 hours of P22077 treatment)	CHEK1 mRNA expression ([6]; P22077 treatment, data not shown)	colony formation, effect on cytarabine sensitivity (primary AML cells; high CHK1 primary AML cells (n=6))	colony formation, effect on cytarabine sensitivity (primary AML cells; low CHK1 primary AML cells (n=3))	CHK1 protein levels [7]	PLA foci per cell, co-staining of CHK1 and USP7 (mean +/- s.e.m.) (CHK1 and USP7)	PLA foci per cell, co-staining of CHK1 and USP7 (mean +/- s.e.m.) (CHK1 and USP7; listed as AraC)	colony formation, resistance of high CHK1 cells compared to low CHK1 cells (primary AML cells; 10 nM cytarabine alone, 7 days)
CC(=O)c1cc([N+](=O)[O-])c(Sc2ccc(F)cc2F)s1 [P22077, 1-[5-[(2,4-Difluorophenyl)thio]-4-nitro-2-thienyl]-ethanone]	synergistically enhances cell death induced by cytarabine	largely unaffected	significantly improved overall mouse survival	synergistically enhances cell death induced by cytarabine	similarly decreased CHK1 protein levels	without significant impact on p53 protein levels	reduced CHK1 protein level	approximately 50%	more abundantly ubiquitinated	significantly reduced cell viability	significantly shortened the half-life of CHK1 protein	without affecting CHEK1 mRNA expression	potentiated the effects of cytarabine	did not modify the sensitivity to cytarabine	significant decrease of CHK1 protein levels	–	–	–
Nc1ccn([C@@H]2O[C@H](CO)[C@@H](O)[C@@H]2O)c(=O)n1 [cytarabine]	–	–	–	–	–	–	–	–	–	–	–	–	–	–	–	significant proximity between the two proteins	3.31+/−0.21 foci/cell	significantly more resistant to cytarabine
